What all share (type): cell-based, human
Experiment [1] relates to AKT phosphorylation at Thr308 in GSCs. The experiment in a line: PDK1 activity in GSCs, (T308)AKT phosphorylation ELISA. Conditions: for time of peak of inhibition of AKT phosphorylation at Thr308 / inhibition of AKT phosphorylation at Thr308: 10 μM; for inhibition of AKT phosphorylation at Thr308: 0-120 min; for inhibition at 10 µM: Homo sapiens, read-out: peak of inhibition (percentage of PDK1 inhibition). The protocol:
(§1) U87MG cells were cultured in 96-well microplates (5.000 cells/well), and treated for different times with 10 μM SA16, SA23 or IB35. At the end of the treatment period, the GSCs were centrifuged at 500×g for 3 minutes; cells were washed twice using fresh saline, and rapidly fixed with 4% (for adherent U87MG cells) or 8% (for suspension GSCs) formaldehyde to preserve activation of specific protein modification. The activity of PDK1 was assessed measuring the levels of phosphorylated AKT on Thr308, using a specific primary antibodies. The subsequent incubation with a secondary HRP-conjugated antibody and the developing solution allowed the colorimetric quantification of the levels of phosphorylated protein. The relative number of cells in each well was then determined using the Crystal-Violet assay. The results were calculated by subtracting the mean background value from the values obtained under each test condition: values were normalised to the number of cells in each well and were expressed as the percentages of the control (untreated cells) values.
The effects of the new compounds on PDK1 activity were investigated by ELISA assays also in GSCs. U87MG-derived CSCs were treated for the indicated times (0-120 min) with NSC medium containing DMSO (control), or 10 μM IIB35, SA23 or SA16. At the end of the treatment periods, the levels of AKT phosphorylation on Thr308 were evaluated using an ELISA assay, as above described. The data were expressed as the percentage of phosphorylated AKT relative to those of untreated cells (control), which were set at 100%, and were the mean values±SEM of three independent experiments performed in triplicate. The data are represented in FIG. 12. The significance of differences was performed using one-way ANOVA with Bonferroni post-test (* p<0.05, ** p<0.01, *** p<0.001 vs. control).
For orientation: ELISA stands for enzyme-linked immunosorbent assay.

The subject of experiment [2] is U87MG cells. Description: U87MG cell proliferation, MTS assay. Conditions: for IC50: Homo sapiens, U-87 MG, 72 h, MTS assay. The protocol: The U87MG cell line was obtained from the National Institute for Cancer Research of Genoa (Italy) and cultured in DMEM 10% FBS and 2 mM glutamine. To isolate GSCs, approximately 2.0×10^6 cells were suspended in 1 mL of a defined serum-free Neural Stem Cell (NSC) medium (Daniele, S., et al., Modulation of A1 and A2B adenosine receptor activity: a new strategy to sensitise glioblastoma stem cells to chemotherapy. Cell death & disease, 2014. 5(11): p. e1539). After 3-4 days of culture, the neurospheres were collected, suspended in NSC medium, dissociated into single cells, and plated for the assays. For the long-term treatment of cells, NSC or complete medium containing drugs was replaced every two to three days.
The human U87MG cells or GSCs were seeded at a density of 3×10^3 cells/well. After 24 h, the cells were treated from one to seven days with fresh growth medium containing different concentrations of SA16, SA23 or IB35. Following the treatment period, cell proliferation was determined using the MTS assay according to manufacturer's instruction. The absorbance of formazan at […] was measured in a colorimetric assay with an automated plate reader (Victor Wallac 2, Perkin Elmer). The results were calculated by subtracting the mean background from the values obtained from each evaluation and were expressed as the percentage of the control (untreated cells). Sigmoid dose-response curve was generated, from which the IC50 values were derived.
As representative GBM cell line, the above U87MG cells were used; this human cell line resulted an appropriate model to study the effects of PDK1 inhibition, because it is deficient for the tumour suppressor phosphatase and tensin homologue (PTEN), a negative regulator of the PI3K/AKT pathway (Wang, S. I., et al., Somatic mutations of PTEN in glioblastoma multiforme. Cancer research, 1997. 57(19): p. 4183-4186). To examine the effects of SA16, SA23 and IB35 on GBM cell growth/survival, U87MG cells were incubated with different concentrations of the new compounds (1 nM-10 μM) for 24 and 72 h. Specifically, U87MG cells were treated in complete medium with different concentrations of SA16, SA23 or IB35 (1 nM-10 μM) for 24 h (A) or 72 h (B). At the end of treatment, cell proliferation was measured using the MTS assay. The data are expressed as a percentage with respect to that of untreated cells (control), which was set to 100%, and are the mean values±SEM of three independent experiments, each performed in duplicate. The significance of the differences reported in FIGS. 1 and 2 was determined with a one-way ANOVA with Bonferroni post-test (* p<0.05, **p<0.01, *** p<0.001 vs. control cells).

In experiment [3] the test system is U87MG cells. Description: Annexin V and 7-AAD staining in U87MG cells (apoptosis). To be noted: 10 μM, 72 h. The protocol:
Dual staining with Annexin V coniugated to fluorescein-isothiocyanate (FITC) and 7-amino-actinomysin (7-AAD) was performed using the commercially available kit (Muse Annexin V and Dead Cell Kit; Merck KGaA, Darmstadt, Germany). U87MG cells or GSCs were treated with DMSO (control), SA16, SA23 or IB35 for 72 h or seven days, respectively. At the end of the treatment periods, the percentages of living, apoptotic and dead cells were acquired and analysed by Muse™ Cell Analyzer as previously described (Daniele, S., et al., Combined inhibition of AKT/mTOR and MDM2 enhances Glioblastoma Multiforme cell apoptosis and differentiation of cancer stem cells. Sci. Rep., 2015. 5.).
It was then investigated whether the reduction in cell proliferation elicited by the PDK1 inhibitors could be associated with apoptosis. U87MG cells were treated for 72 h with DMSO (control), or 10 μM SA16, SA23 or IB35. At the end of the treatment period, the cells were collected, and the level of phosphatidylserine externalisation was evaluated using the Annexin V-staining protocol, as described above (FIG. 3). In FIG. 4 the data are expressed as the percentage of apoptotic cells (the data for the early-stage apoptotic cells shown in white, and the data for the late-stage apoptotic/necrotic cells shown in grey) versus the total number of cells. The data shown represented the mean±SEM of three different experiments. The significance of the differences was determined with a one-way ANOVA with Bonferroni post-test (*** p<0.001 vs. control).

For experiment [4], the system named is AKT phosphorylation at Thr308 in U87MG cells. Description: PDK1 activity in U87MG cells, (T308)AKT phosphorylation ELISA. Conditions: for inhibition at 10 µM: Homo sapiens, U-87 MG, U87MG cells, read-out: peak of inhibition (percentage of PDK1 inhibition); for time of peak of inhibition of (T308)AKT phosphorylation / inhibition of AKT phosphorylation at Thr308: U87MG, 10 μM; for inhibition of AKT phosphorylation at Thr308: 0-120 min. The protocol:
as §1
280(4): p. 1107-1115). […] At the end of the treatment periods, the levels of (T308)AKT phosphorylation was evaluated using an ELISA kit, as described above. The data reported in FIG. 5 were expressed as the percentage of phosphorylated (T308)AKT relative to those of untreated cells (control), which were set at 100%, and were the mean values±SEM of three independent experiments performed in triplicate.

Each structure is given as a SMILES string. Where two headings read alike, the source gives them in different places.

As for `O=C(CNC(=O)c1cccn(Cc2ccc(F)c(F)c2)c1=O)Nc1ccc2c(c1)/C(=C/c1cnc[nH]1)C(=O)N2` [IB35, (Z)—N-(2-((3-((1H-imidazol-5-yl)methylene)-2-oxoindolin-5-yl)amino)-2-oxoethyl)-1-(3,4-difluorobenzyl)-2-oxo-1,2-dihydro pyridine-3-carboxamide], in experiment [1], the “time of peak of inhibition of AKT phosphorylation at Thr308” value stood at 120 min; the “inhibition of AKT phosphorylation at Thr308” value was “significantly inhibited”; the inhibition (commonly the change of the read-out against control, counted positive when it falls) at 10 µM was found to be 80.4 ± 3.7%. Also, the “inhibition of U87MG cell proliferation” value in the experiment with U87MG cells [2] (24 h, higher effect observed (1 nM-10 μM tested)) came out at 41%. Also, in the experiment with U87MG cells [2] (read-out: IC50 U87MG), the IC50 amounted to 450 ± 46.2 nM. Besides, in the experiment on U87MG cells [3], the “percentage of total apoptotic cells” value amounted to 23.0±1.9%; the “phosphatidylserine externalization (early and late apoptosis/death)” value was “significant phosphatidylserine externalization”. In experiment [4], the inhibition at 10 µM was determined as 54 ± 5.2%, the “time of peak of inhibition of (T308)AKT phosphorylation” value worked out at 120 min and the “inhibition of AKT phosphorylation at Thr308” value is recorded as “significantly inhibited”.

On to `O=C1Nc2ccc(NC(=O)[C@H](NC(=O)c3cccn(Cc4ccc(F)c(F)c4)c3=O)c3ccccc3)cc2/C1=C/c1ncc[nH]1` [SA23, (Z)—(R)—N-(2-((3-((1H-imidazol-2-yl)methylene)-2-oxoindolin-5-yl)amino)-2-oxo-1-phenylethyl)-1-(3,4-difluorobenzyl)-2-oxo-1,2-dihydropyridine-3-carboxamide], for which, in experiment [1], the “time of peak of inhibition of AKT phosphorylation at Thr308” value came to 120 min, the “inhibition of AKT phosphorylation at Thr308” value is “significantly inhibited” and the inhibition at 10 µM stood at 69 ± 4.5%. The IC50 in the experiment with U87MG cells [2] (read-out: IC50 U87MG) came out at 1170 ± 100 nM. The IC50 with U87MG cells [2] (read-out: IC50 U87MG cell proliferation) amounted to 1170 ± 100 nM. Also, the “phosphatidylserine externalization (early and late apoptosis/death)” value with U87MG cells [3] is given as “significant phosphatidylserine externalization”. Besides, in experiment [4], the inhibition at 10 µM amounted to 48.1 ± 5%, the “time of peak of inhibition of (T308)AKT phosphorylation” value turned out to be 120 min and the “inhibition of AKT phosphorylation at Thr308” value was “significantly inhibited”.

The values are drawn from US10351548B2, “2-oxo-1,2-dihydropyridine-3-carboxamide compounds and their use as inhibitors of PDK1” (INTERNATIONAL SOCIETY FOR DRUG DEVELOPMENT S.R.L., priority 2015, dated 2019).
